System: STAT5 phosphorylation downstream of JAK3 in human YT cells
Assay: pSTAT5 cell assay (IL-2 stimulated YT cells, AlphaScreen)
Type: cell-based
Settings: IL-2 stimulation, read-out: Inhibition values (IC50) pSTAT5
Source text: STAT5 phosphorylation represents one of the proximal events in the signalling cascade downstream of JAK3 activation. Therefore STAT5 phosphorylation is an appropriate readout to assess the mechanistic effect of JAK3 inhibition. Stimulation of human YT cells, an NK-like cell line, with interleukin-2 (IL-2) results in phosphorylation of STAT5 at tyrosine residue 694 (Tyr694) that can be quantitatively measured by immunodetection with specific antibodies and an appropriate detection method, in this case AlphaScreen assay technology.
Human YT cells were grown in RPMI medium (Lonza, BE12-167) with 2 mM L-Glutamine (Invitrogen, 25030-024) and 10% heat-inactivated FBS (Invitrogen, 10106-169) and kept in a humidified incubator (37° C., 5% CO2). Cells were harvested by centrifugation, washed once with HBSS (Invitrogen, 14180-046), resuspended in HBSS at 1.5×10^6 cells/ml and 0.9×10^4 cells were seeded in 6 μl per well in a 96 well White plate (PerkinElmer, 6005569).
Test compounds were dissolved in DMSO and a 1:3 dilution series (9 steps) was prepared. To generate a dose response curve, 3 μl of fourfold concentrated compound in 4% DMSO/HBSS were added to each cell sample in the 96 well plate resulting in a final DMSO concentration of 1% DMSO. Cells were incubated for one hour in a humidified incubator (37° C., 5% CO2). To each well 3 μl of a fourfold concentrated IL-2 solution (Recombinant human IL-2, Peprotech 200-02; 120 nM solution in HBSS) was added and incubated for 30 minutes at room temperature. Cells were lysed by adding 3 μl of 5× lysis buffer (SureFire lysis buffer; Perkin Elmer, TGRS5S10K) and incubated for 10 minutes at room temperature with gentle shaking
For signal detection by AlphaScreen® technology the SureFire phospho-STAT5 (Tyr694/Tyr699) kit was used according to instructions provided by the manufacturer (Perkin Elmer, TGRS5S10K). Acceptor beads were added as recommended by the manufacturer (Reactivation buffer/Activation buffer/Acceptor beads at a ratio of 40:10:1) and incubated at room temperature for 1.5 hours with gentle shaking Then donor beads were added as recommended (Dilution buffer/Donor beads at a ratio of 20:1) and incubated at room temperature for 1.5 hours with gentle shaking Plates were read on an Envision instrument (Perkin Elmer) with the AlphaScreen protocol. Data were analysed in BioAssay using the nonlinear regression for a sigmoidal dose-response with a variable slope.

| IC50 | Structure (SMILES) |
| --- | --- |
| < 250 nM | NC(=O)Cn1cc(Nc2ncc(Cl)c(N[C@H](CO)c3ccccc3F)n2)cn1 [Compound 78] |
| 250 to 1000 nM | CN(C)C(=O)Cn1cc(Nc2ncc(Cl)c(N[C@H](CO)c3ccccc3)n2)cn1 [Compound 30] |
| 250 to 1000 nM | OC[C@@H](Nc1nc(Nc2cn[nH]c2)ncc1Cl)c1ccccc1 [Compound 75] |
| 250 to 1000 nM | CNC(=O)Cn1cc(Nc2ncc(Cl)c(N[C@H](CO)c3ccccc3)n2)cn1 [Compound 23, (S)-2-(4-((5-chloro-4-((2-hydroxy-1-phenylethyl)amino)pyrimidin-2-yl)amino)-1H-pyrazol-1-yl)-N-methylacetamide] |
| 250 to 1000 nM | O=C(Cn1cc(Nc2ncc(Cl)c(N[C@H](CO)c3ccccc3)n2)cn1)NC1CC1 [Compound 68] |
| 250 to 1000 nM | CC(C)NC(=O)Cn1cc(Nc2ncc(Cl)c(N[C@H](CO)c3ccccc3)n2)cn1 [Compound 67] |

— US20140179664A1, “Heterocyclyl Pyrimidine Analogues As JAK Inhibitors” (Cellzome Limited, priority 2011, published 2014)
